{"source": "patent US20250333486A1", "about": "“Anti-HSP90 alpha antibody and uses thereof” (NATIONAL HEALTH RESEARCH INSTITUTES, priority 2021, published 2025)", "key": {"[1]": {"tested_on": "PANC-1 plus EndoMT cell grafts", "experiment": "Therapeutic efficacy in desmoplastic humanized mouse PDAC transplant model", "type": "in vivo", "conditions": "hHSC-transplanted ASID mice; antibody 5 mg/kg x3, gemcitabine 100 mg/kg x2, IV"}, "[2]": {"tested_on": "eHSP90α—TLR4 ligation", "conditions": "Chua et al., Cells 2020; cited from earlier work"}, "[3]": {"tested_on": "ARPE-19 retinal pigmented epithelial cells", "experiment": "Retinal cell toxicity assay (MTS)", "type": "cell-based, human", "conditions": "72-h treatment, MTS; read-out: IC50 of cytotoxicity to ARPE-19 cells", "experimental": "ARPE-19 cells were seeded onto 96-well plates at a density of 4000 cells per well, and then treated in triplicate with various concentrations of 17-AAG or anti-HSP90α antibody HH01 for 72 h. The 3-(4,5-dimethylthiazol-2-yl)-5-(3-carboxymethoxyphenyl)-2-(4-sulfophenyl)-2H-tetrazolium (MTS; Sigma-Aldrich) assay was employed and OD490 was measured to evaluate cell viability upon each treatment."}, "[4]": {"tested_on": "PANC-1 cells", "experiment": "Cell spheroid-forming assay, rHSP90α-induced PANC-1 spheroids", "type": "cell-based, human", "conditions": "15 μg/ml rHSP90α plus 15 μg/ml peptide", "experimental": "One thousand cancer cells were seeded onto each well of 24-well plates pre-coated with a 4-mm thick layer of 0.5% agarose. After incubation 24 h with serum-free medium at 37° C. plus a 5% CO2 humidified atmosphere, cells were added with PBS or 15 μg/ml of rHSP90α in the absence or presence of 10 μg/ml of control IgG or the tested anti-HSP90α antibody. The incubation was kept for 10-14 days with supplements of some fresh serum-free medium every 3 days. Finally, the cell spheroids characterized by tight, non-adherent, and >100 μm in diameter were photographed and counted under an Olympus IX 71 inverted microscope (Center Valley, PA, USA). The spheroid formation % was calculated by the formula: (number of cell spheroids/1000)×100%."}, "[5]": {"tested_on": "PANC-1 cells", "experiment": "Transwell invasion assay, rHSP90α-induced PANC-1 invasion", "type": "cell-based, human", "conditions": "15 μg/ml rHSP90α plus 15 μg/ml peptide", "experimental": "In a 37° C. and 5% CO2 humidified incubator, cancer cells were subjected to serum starvation in 0.5% FBS-containing medium for 16 h, and then added […] After another 24 h, the treated cells were harvested as aliquots (1×10^5 cells per aliquot) in 0.5% FBS-containing culture medium, and then each aliquot was seeded into a top chamber of Transwell inserts pre-coated with 5-fold diluted Matrigel (BD Biosciences). Cells were allowed 16 h to invade through the Matrigel toward the bottom chambers containing culture medium plus 10% FBS. The filters of the Transwell inserts were then fixed and stained with Giemsa. Invasive cells on the lower side of filters were photographed using the Axiovert S100/AxioCam HR microscope system (Carl Zeiss, Oberkochen, Germany) and further quantified by the Image-Pro Plus software (Media Cybernetics, Inc., Silver Spring, MD, USA)."}}}
{"compound": "Nc1ccn([C@@H]2O[C@H](CO)[C@@H](O)C2(F)F)c(=O)n1", "note": "[gemcitabine]", "values": [{"measurement": "tumor growth curves", "setting": "[1]", "result": "significantly repressed tumors after the second administration of gemcitabine"}]}
{"compound": "CCCCCCCCOC(=O)c1cc(O)c(O)c(O)c1", "note": "[Octyl gallate]", "values": [{"measurement": "effect on EndoMT-derived CAFs and eHSP90α-induced macrophage M2-polarization and HSP90α expression", "setting": "[2]", "result": "inhibitory effect"}]}
{"compound": "C=CCNC1=C2C[C@@H](C)C[C@H](OC)[C@H](O)[C@@H](C)/C=C(\\C)[C@H](OC(N)=O)[C@@H](OC)/C=C\\C=C(/C)C(=O)NC(=CC1=O)C2=O", "note": "[Clone 17-AAG, 17-AAG, reference compound]", "values": [{"measurement": "IC50", "setting": "[3]", "result": 64.7, "unit": "nM"}]}
{"compound": "peptide with a sequence of the a.a. 227-272 region of HSP90α: synthesized epitopes-containing peptide with the sequence of a.a. 227-272 of HSP90α (DKEVSDDEAEEKEDKEEEKEKEEKESEDKPEIEDVGSDEEEEKKDG; UniProt P07900 227-272, looked up, fragment)", "values": [{"measurement": "rHSP90α-induced PANC-1 spheroid formation", "setting": "[4]", "result": "competitively suppressed"}, {"measurement": "rHSP90α-induced PANC-1 cell invasion", "setting": "[5]", "result": "competitively suppressed"}]}
